Measurements reported in patent US8420606B2, “Method of utilizing physiological activity of rare saccharide and composition containing rare saccharide” (priority 2002, dated 2013).
“Also recorded” adds a separate entry of the source.

How the values were obtained:
[1] = tested on: hippocampus neurons; test: temporary brain ischemia, survival of hippocampus neurons; format: in vivo, gerbil; settings: for necrosis of hippocampus neurons caused by ischemia: 200 mg/kg before ischemia, 5 minutes ischemia, after 1 week
Protocol: (2) Method: The bilateral common carotid artery of a gerbil was shut off for 5 minutes. After 1 week, the gerbil was sacrificed and a sample was prepared in accordance with the ordinary method, followed by hematoxyline eosin dyeing. The survival rate was measured by counting the number of hippocampus neurons while looking at them under a microscope. Experiments were performed on a normal control group, a group subjected to only ischemia, and a group administrated with 200 mg/kg of D-allose or D-psicose before ischemia. It is known that glutamates released in large amount from the neurons with ischemia are toxic to the neurons. Such a point was examined by fixing the gerbil to a brain position fixing device, perfusing a solution, in which oxidase glutamate is dissolved, to the hippocampus through a probe for micro-dialysis, and measuring the glutamate concentration outside the hippocampus neurons. Also, the inventors have clarified the relationship between the metabolism of glucose and the action mechanism of D-allose with ischemia by pre-administrating D-allose and 2-deoxiglucose.

[2] = tested on: Hepatic cancer cells (HepG2); test: proliferation of cultured cells, MTT method, HepG2; format: cell-based, human; settings: saccharide 50 mM, 4 to 5 days
Protocol: (§1) Various kinds of rare saccharides were added at a concentration of 50 mM to culture media under the following conditions, and an influence of each rare saccharide upon the progress of proliferation of cancer cell strains was examined.
(§2) (1) Target cells to which the rare saccharides were added: Hepatic cancer cells (HepG2), uterine cancer cells (He1a), ovary cancer cells (OVCAR3), and skin keratinocyte (HaCaT) were selected as target cells to which the rare saccharides were added.
(§3) (2) Rare saccharides added: In addition to D-allose, glucose and D-altros as rare saccharides belonging to ketose were added, as other comparative saccharides, to the addition target cells. Also, D-fructose was employed as a control.
(§4) (3) Experiment method: A number 3,000-5,000 of addition target cells per type were inoculated into a multi-well plastic dish (hereinafter referred to as a “well”) having 96 wells, and were cultured for 4 to 5 days in a culture medium supplemented with 5 to 10% of Fetal Bovine Serum (FBS) depending on the cell types. D-Allose, D-glucose and D-altros were each added at concentration of 50 mM to the addition target cells per type. Similarly, D-fructose as a control was added at a concentration of 50 mM. To examine the influence upon the cell proliferation, the cell number was measured in units of 24 hours by using the MTT method described below.
(1) Preparation of reagents: A predetermined amount of MTT (tetrazolium salt) was dissolved in PBS(−) sterilized in an autoclave to obtain an MTT solution through filtering and sterilization. An acidic solution was prepared by adding 50 mL of N,N-dimethylformaldehyde and water to a predetermined amount of (20 g) of SDS, thereby obtaining a 100 mL of solution. […]
(2) Test method: The cells were treated with TEP to prepare a cell suspension liquid. […] The absorbance of the liquid was measured at a wavelength of 570 to 600 nm by using a spectrophotometer. After dissolving the colored substance (formazan) in the acid solution, the absorbance can be measured directly by a plate reader.

[3] = tested on: ovary cancer cells (OVCAR3); test: proliferation of cultured cells, MTT method, OVCAR3; format: cell-based; settings: for proliferation of OVCAR3 cells (cell number over time): saccharide 50 mM, 4 to 5 days, MTT
Protocol: as §1, §2, §3, §4
(1) Preparation of reagents: A predetermined amount of MTT (tetrazolium salt) was dissolved in PBS(−) sterilized in an autoclave to obtain an MTT solution through filtering and sterilization. An acidic solution was prepared by adding 50 mL of N,N-dimethylformaldehyde and water to a predetermined amount of (20 g) of SDS, thereby obtaining a 100 mL of solution. About […] of 1N hydrochloric acid was added to the solution for adjustment of a pH-value to 4.7. The solution was preserved at room temperature and warmed up to 37° C. just before the use.
(2) Test method: The cells were treated with TEP to prepare a cell suspension liquid. This cell suspension liquid was pipetted in a predetermined cell-density (300 to 52000 cells/well) to each well (96-well plate: 0.1 mL of culture medium per well). The saccharide as a drug was added in a predetermined amount to each well, followed by cultivation for a whole day and night in a CO2 incubator. Then, 0.5 mg/mL of the MTT solution was added and the resulting culture was incubated for 4 hours in the incubator. Thereafter, the culture medium was completely removed. Then, in a room kept at 37° C., an acid solution was added in amount of 0.1 mL/well. The well plate was placed on a micro-plate mixer and shaken at 37° C. for 20 minutes to dissolve a colored substance (namely, to dissolve “formazan” in the acid solution). The absorbance of the liquid was measured at a wavelength of 570 to 600 nm by using a spectrophotometer. After dissolving the colored substance (formazan) in the acid solution, the absorbance can be measured directly by a plate reader.
(1) Experiment method: The ovary cancer cells (OVCAR3) were selected as target cells to which a rare saccharide was added, and D-allose as the saccharide was added at concentrations of 1 mM, 5 mM, 10 mM, 20 mM, 50 mM and 100 mM. The experimental conditions, such as the method of culturing the ovary cancer cells (OVCAR3) and the method of measuring the cell number (MTT method), were the same as those in Example 1.

[4] = tested on: island skin flap of Wistar rat; test: island skin-flap ischemia-reperfusion, survival area; format: in vivo
Description: (1) Purpose: In the past basic researches, the inventors have tried to find out the mechanisms of skin-flap necrosis after ischemia and reperfusion of island skin flaps and necrosis of distal portions of random pattern skin flaps. As a result, the inventors have clarified that active oxygen is related to the necrosis of island skin flaps after ischemia and reperfusion and the necrosis of distal portions of random pattern skin flaps. […] In this Example 7, a first purpose is to obtain basic data regarding active-oxygen production inhibitory effects of rare saccharides, and a second purpose is to ensure clinical applications with the view of effectively preventing the necrosis of island skin flaps and random pattern skin flaps. A third purpose is to realize an application as a preservative liquid for long-period preservation of free skin flaps and amputated limbs. (2) Experiment method: 1) A Wistar rat (♂, 7 to 8 weeks, and 300 g or less) was put under anesthesia through abdominal administration of pentobarbital (Nembutal). 2) The abdomen was wholly shaved by a hair clipper. 3) An island skin flap of 3×5 cm was formed in the left abdomen with the left femoral artery and vein serving as blood vessel pedicels. 4) The elevated island skin flap was stitched to the original position by using a 4-0 nylon string. 5) Drugs (0.6 mL per drug) were each administrated in one shot through the right femoral artery and vein by instantaneous injection. The administered drugs were D-allose, glucose (0.2 mg/g), and physiological saline in various concentrations.
6) After waiting for 15 minutes from the administration of each drug, the blood vessel pedicels of both the left femoral artery and vein were clamped. Two vascular clips (60 g for the vein) were used for the clamping.
7) Complete shutoff of blood circulation was confirmed by using a laser Doppler rheometer.
8) After 8 hours, the rats were unclamped. Resumption of blood circulation was also confirmed by using a laser Doppler rheometer.
9) After 1 week, the life or death of the skin flap was determined.
10) An image of the skin flap was taken by a digital camera and input to a computer to calculate a survival area (%) by using area calculation software.
(3) Experiment groups: The following 6 groups were prepared with n=15 in each group.
1) D-allose: 150 mg (0.5 mg/g)
2) D-allose: 60 mg (0.2 mg/g)
3) D-allose: 30 mg (0.1 mg/g)
4) D-allose: 15 mg (0.05 mg/g)
5) D-glucose: 60 mg (0.2 mg/g)
6) physiological saline (control)
(4) Results (FIGS. 17 to 20): FIG. 18 showing all data of the survival areas (%), and FIG. 19 showing results of variance analysis (one-dimensional arrangement). […] In the multiple comparison assay, a significant difference was determined on condition of p<0.05.

SMILES | necrosis of hippocampus neurons caused by ischemia [1] | proliferation of HepG2 cells (cell number over time) [2] | hippocampus neurons alive after ischemia ([1]; ischemia for 5 minutes, rat brains as printed, solution containing D-allose perfused before the ischemia, 80% died without) [%] | concentration at which the cancer-cell proliferation inhibitory effect was first found ([3]; OVCAR3, 1, 5, 10, 20, 50, 100 mM tested, 10% fetal bovine serum) [mM] | dead cells (microscope, trypan blue-exclusion assay) ([3]; OVCAR3 cells to which D-allose was applied) | proliferation of OVCAR3 cells (cell number over time) [3] | skin flap survival area versus physiological saline group and glucose group ([4]; D-allose 15 mg (0.05 mg/g)) | skin flap survival area versus physiological saline group ([4]; D-allose 30 mg (0.1 mg/g) or more (groups 150, 60, 30 mg), 8 hours clamping, 1 week, p<0.05) | skin flap survival area versus glucose group ([4]; D-allose 150 mg (0.5 mg/g) and 60 mg (0.2 mg/g)) | dose required to develop the effect of extending the skin flap survival area ([4]; per rat, 30 mg = 0.1 mg/g) [mg] | skin flap survival area versus physiological saline group ([4]; D-glucose 60 mg (0.2 mg/g))
O=C(CO)[C@H](O)[C@H](O)[C@H](O)CO [D-psicose] | not found; also recorded: not confirmed |  |  |  |  |  |  |  |  |  | 
O=C[C@H](O)[C@H](O)[C@H](O)[C@H](O)CO [D-allose] | significantly inhibited necrosis | strongly inhibited proliferation; also recorded: has a proliferation inhibitory effect | 70 | 10 | dead cells hardly existed | strongly inhibited proliferation; also recorded: has a proliferation inhibitory effect | a statistical significant difference was not confirmed | a statistical significant difference was confirmed | a statistical significant difference was confirmed | ≥ 30 | 
O=C[C@H](O)[C@@H](O)[C@H](O)[C@H](O)CO [D-glucose, reference compound] |  | hardly found |  |  |  | acted so as to promote the proliferation of the cancer cells |  |  |  |  | did not show a statistical significant difference
